From PubChem BioAssay (NCI)
Where “and” joins values, the source holds several entries; their conditions need not be identical. Identical values can stand only once.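 Cultured in 96-well plates, cells were exposed to test compound for 48 hours across five concentrations. GI50 = concentration required for 50% inhibition of growth. At the TGI there is no net growth.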

What was measured:
Assay in all cases: NCI-60 cell line screen, 48 h
NCI-H522 lung = test system: NCI-H522 lung
DU-145 prostate = test system: DU-145 prostate
HL-60(TB) leukemia = test system: HL-60(TB) leukemia
K-562 leukemia = test system: K-562 leukemia
MALME-3M melanoma = test system: MALME-3M melanoma
SN12C renal = test system: SN12C renal
NCI-H23 lung = test system: NCI-H23 lung
HT29 colon = test system: HT29 colon
SF-539 CNS = test system: SF-539 CNS
A498 renal = test system: A498 renal

SMILES | GI50 (NCI-H522 lung) [µM] | TGI (NCI-H522 lung) | GI50 (DU-145 prostate) [µM] | TGI (DU-145 prostate) [µM] | GI50 (HL-60(TB) leukemia) | TGI (HL-60(TB) leukemia) | GI50 (K-562 leukemia) | TGI (K-562 leukemia) | GI50 (MALME-3M melanoma) | TGI (MALME-3M melanoma) | GI50 (SN12C renal) | TGI (SN12C renal) | GI50 (NCI-H23 lung) [µM] | TGI (NCI-H23 lung) | GI50 (HT29 colon) | TGI (HT29 colon) | GI50 (SF-539 CNS) | TGI (SF-539 CNS) | GI50 (A498 renal) | TGI (A498 renal)
CN(C)c1ccc(/C=C2\N=C(c3ccccc3)N(c3cc(C(F)(F)F)ccc3Cl)C2=O)cc1 | > 100 | > 100 µM | > 100 | > 100 | > 100 µM | > 100 µM | > 100 µM | > 100 µM | > 100 µM | > 100 µM | > 100 µM | > 100 µM | > 100 | > 100 µM | > 100 µM | > 100 µM | > 100 µM | > 100 µM | > 100 µM | > 100 µM
COc1ccc(NC(=O)/C=C(C)/C=C/C=C(C)/C=C/C2=C(C)CCCC2(C)C)cc1 | – | – | 8.2 | 20.3 | 2.85 µM | 6.01 µM | 2.41 µM | 7.23 µM | 38.9 µM | 65.4 µM | 11.2 µM | 23.9 µM | 9.78 | 24.3 µM | 3.22 µM | 10.2 µM | 2.59 µM | 6.15 µM | 19.9 µM | 34.5 µM
COC(=O)C12CC(NC(=O)c3csc([C@@H](C[C@H](C(C)C)N(C)C(=O)[C@@H](NC(=O)[C@H]4CCCCN4C)C4CC4)OC(C)=O)n3)(C1)C2 | 0.00375 | 3.15 µM | 0.0154 | > 16.7 | 0.00243 µM | 0.00876 µM | 0.00549 µM | > 16.7 µM | 0.0357 µM | > 16.7 µM | 0.0207 µM | > 16.7 µM | 0.0885 | > 16.7 µM | 0.0134 µM | > 16.7 µM | 0.00853 µM | 0.0613 µM | 0.0833 µM | > 4.46 µM
CN(C)c1nc(=NCc2ccco2)ss1 | – | 3.11 µM | – | > 100 | – | 10.6 µM | – | > 90.8 µM | – | 54 µM | – | 57.2 µM | – | 58 µM | – | 20.4 µM | – | 19.8 µM | – | > 100 µM
CSc1ncc(Br)c(Sc2nc(N)nc3nc[nH]c23)n1 | 3.97 | 20.3 µM | 1.44 | 23.9 | 4.34 µM | 27.3 µM | 2.01 µM | 10.1 µM | 3.34 µM | 18.3 µM | 3.8 µM | 36.5 µM | 3.74 | > 100 µM | 4.09 µM | 60.5 µM | 3.2 µM | 15 µM | 3.62 µM | 29 µM
CN1CCN(CCOc2ccc(-c3cnc4c(-c5cccc(F)c5)cnn4c3)cc2)CC1 | 1.73 | 3.65 µM | 1.74 | 3.28 | 2.1 µM | 4.36 µM | 0.915 µM | 3.48 µM | 1.66 µM | 3.23 µM | 1.82 µM | 3.76 µM | 1.87 | 3.72 µM | 1.51 µM | 3.32 µM | 1.49 µM | 2.88 µM | 1.76 µM | 5.7 µM
COC(=O)C(CCC(=O)CCl)N1C(=O)c2ccccc2C1=O (stereo unspecified) | – | 4.06 µM | – | 26.9 | – | 5.71 µM | – | 12.7 µM | – | 11.9 µM | – | 23.8 µM | – | 22.8 µM | – | 27.6 µM | – | 22 µM | – | 36.6 µM
O=C(Nc1ccc(-n2ccc3c(NC(=O)c4ccccc4)ncnc32)cc1)c1cccc(C(F)(F)F)c1 | 1.87 | 20.6 µM | 1.77 | 16.1 | 3.02 µM | 36.7 µM | 0.13 µM | > 53.8 µM | 9.75 µM | 26.1 µM | 5.27 µM | 27.9 µM | 13.3 | 35.7 µM | 0.457 µM | 15.7 µM | 1.11 µM | > 93.3 µM | 3.51 µM | 23.2 µM
CCOc1ccc2c(c1)C(=O)c1c-2n(CCCBr)c(=O)c2cc([N+](=O)[O-])ccc12 | 5.74 | 72.8 µM | 4.29 | > 100 | 64.5 µM | > 100 µM | 50.9 µM | > 100 µM | 40.7 µM | > 100 µM | 11.9 µM | > 100 µM | 7.14 | > 100 µM | > 100 µM | > 100 µM | 5.57 µM | 40.9 µM | 36 µM | > 100 µM
CC1=C2C(=CC(C)(C)[C@@H]2O)C(=O)[C@](C)(O)C12CC2 | 0.0137 | 0.0484 µM and < 0.0232 µM | 0.00545 | 0.0262 | 0.00901 µM and 0.0194 µM | 0.0495 µM and 0.0832 µM | 0.0145 µM | 0.369 µM and 0.596 µM | 0.0486 µM | 0.112 µM and 0.054 µM | 0.0387 µM | 0.216 µM and 0.184 µM | 0.0157 | 0.0607 µM and 0.0266 µM | 0.00623 µM | 0.208 µM and 0.0713 µM | – | 0.0548 µM and 0.038 µM | 0.0183 µM and 0.0108 µM | 0.0499 µM and 0.0553 µM
CCCn1cnc2c(SCC(=O)O)nc(N)nc21 | – | > 100 µM | – | > 100 | – | > 100 µM | – | > 100 µM | – | > 100 µM | – | > 100 µM | – | > 100 µM | – | > 100 µM | – | – | – | > 100 µM
CCOC(=O)c1c(C)n(Cc2ccc(Cl)cc2Cl)c2c1cc1oc(=O)c(=O)n3cnc2c13 | 16.4 | 32.9 µM | 17.3 | 32.9 | 5.43 µM | 28.2 µM | 5.14 µM | 22.6 µM | 10.4 µM | 25.5 µM | 19 µM | 35.2 µM | – | – | 11 µM | 37.8 µM | 20.6 µM | 38.3 µM | 20.6 µM | 36.1 µM
Cc1nc2ccc(Br)cc2c(=O)n1-c1ccc(NC2OCC(O)C(O)C2O)cc1 (stereo unspecified) | – | – | – | > 100 | 34.9 µM and 73.1 µM | > 100 µM | 17.3 µM and > 100 µM | > 100 µM | 23.2 µM and > 100 µM | 65 µM and > 100 µM | 30 µM and > 100 µM | > 100 µM | – | – | 20.7 µM and > 100 µM | 48.7 µM and > 100 µM | 18.3 µM and > 100 µM | 37.2 µM and > 100 µM | – | > 100 µM
Cc1cc(Nc2nc(C(=O)Nc3ccccc3)nc3ccccc23)n[nH]1 | 6.37 | > 25 µM | 9.08 | > 25 | 5.9 µM | > 25 µM | 7.94 µM | > 25 µM | 13.8 µM | > 25 µM | 10.3 µM | > 25 µM | – | – | 17.6 µM | > 25 µM | > 25 µM | > 25 µM | 1.05 µM | > 25 µM
